US7855200B2, “Method for treatment of gastric ulcers and ulcers induced by aspirin” (Council of Scientific and Industrial Research, priority 2006, dated 2010)

Assays:
Format in all cases: in vivo, albino rats
[1] = tested on: acetyl salicylic acid induced gastric lesions; test: Acetyl salicylic acid (aspirin) induced gastric ulcer; set-up: Ulcer index Mean(SE): scale not given here; details: rats, aspirin 200 mg/kg
Description: Stress induced gastric ulceration The commercially available drug ranitidine (sigma), Omeprazole (sigma) and sucralfate (Merck) were used as reference standard in experimental models. The Tween-80 (SD fine chemicals) was used as vehicle for the administration of the drug, which is used as control. Antiulcer activity of the compounds under taken was studied. The animals were divided into 20 groups of 6 animals each. Group 1 received the vehicle Tween 80 (1%, 1 ml) which served as the control. Group 2 received ranitidine at a dose of 50-mg/kg body weight, which served as standard for comparison. Group 3 to 20 at a dose of 25 mg/kg body weight. Rats were administered per orally with a daily dose of the compounds and the drug ranitidine for a period of five days and then fasted for 24 hours. The […] acetyl salicylic acid (aspirin) at a dose of 200 mg/kg body weight was administered as a suspension in tween-80 (1%), 30 min after the drug administration each day. All drugs were administered orally on the 6th day after the last administration of the drugs and the ulcer inducing agent aspirin, the rats were killed by cervical dislocation and their stomach were opened along the greater curvature and washed with luke warm saline and examined under a dissecting microscope. The ulcer index was calculated for each stomach. […] The antiulcer activity of the compounds was studied. The animals were divided into 19 groups of 6 animals each. Group 1 received the vehicle Tween 80 (1%, 1 ml) which served as the control. Group 2 received ranitidine at a dose of 50-mg/kg-body weight, which served as standard for comparison. […] Rats were administered per orally with a daily dose of the compounds and the drug ranitidine to respective groups for a period of five days and then fasted for 24 hours. The […] acetyl salicylic acid (aspirin) at a dose of 200 mg/kg body weight was administered as a suspension in tween-80 (1%), 30 min after the drug administration each day. All drugs were administered orally on ht […] day after the last administration of the drugs and the ulcer inducing agent aspirin, the rats were killed by cervical dislocation and their stomach were opened along the greater curvature and washed with luke warm saline and examined under a dissecting microscope.

[2] = tested on: gastric ulceration in cold restraint rats; test: Cold restraint (stress) induced ulcers; set-up: Ulcer index Mean(SE): scale not given here; details: rats, 4° C. for 2 hours
Source text: (§1) The compounds taken under study for antigastric ulcer screening by four different models were selected using experimental albino rats: • 1. Aspirin induced gastric ulceration • 2. Pylorus ligated gastric ulceration • 3. Ethanol induced gastric ulceration • 4. Stress induced gastric ulceration
(§2) The commercially available drug ranitidine (sigma), Omeprazole (sigma) and sucralfate (Merck) were used as reference standard in experimental models. The Tween-80 (SD fine chemicals) was used as vehicle for the administration of the drug, which is used as control.
(§3) The antiulcer activity of the compounds was studied. The animals were divided into 21 groups of 7 animals each. Group 1 received the vehicle Tween 80 (1%, 1 ml) which served as the control. Group 2 received ranitidine at a dose of 50-mg/kg body weight, which served as standard for comparison. Group 3 to 21 at a dose of 25 mg/kg body weight. Animals were deprived of food 48 hours before the experiment. The water was allowed for free access. Rats were administered per orally with compounds and the drug ranitidine. The water was removed 1 hour before restraint and exposed to a temperature of 4° C. for 2 hours. Two hours after stress, the animals were sacrificed. The stressed animals were opened along the greater curvature and the severity of gastric ulcer was assessed in terms of mean ulcer index. 2.
as §3, with “8” for “21”, “6” for “7”, “50, 25, 15, 10 and 5” for “25”, “weight respectively.” for “weight.”, “index.” for “index. 2.”

[3] = tested on: ethanol induced gastric ulcers; test: Ethanol induced ulcers; details: rats, ethanol challenge; for Acidity Total mEg / Gastric content / pH: 4 hours after pylorus ligation
Description: Stress induced gastric ulceration The commercially available drug ranitidine (sigma), Omeprazole (sigma) and sucralfate (Merck) were used as reference standard in experimental models. The Tween-80 (SD fine chemicals) was used as vehicle for the administration of the drug, which is used as control. The animals were divided into 22 groups of 6 animals each. Animals were deprived of food for 48 hours but had free access to water. Group 1 received the vehicle Tween 80 (1%, 1 ml) which served as the control. Group 2 received ranitidine at a dose of 50-mg/kg-body weight, which served as standard for comparison. Group 3 to received Omeprazole at a dose of 30-mg/kg body weight, which served as standard for comparison. Group 4 received sucralfate at a dose of 400-mg/kg body weight, which served as standard for comparison. Group 5 to 22 received at a dose of 25 mg/kg body weight. Lesions were induced 1 hour after ethanol challenge animals. The stomach was ligated at the pylorus under ether anesthesia. 4 hours after pylorus ligation, the animals were sacrificed and the contents drained and centrifuges at 5000 rpm for 10 minutes. Aliquots of supernatant were used for determination of total acid by titrating with 0.01N NaOH using topfers reagent and phenolphthalein indicators. […] The animals were divided into 9 groups of 6 animals each. Animals were deprived of food for 48 hours but had free access to water. Group 1 received the vehicle Tween 80 (1%, 1 ml) which served as the control. Group 2 received ranitidine at a dose of 50-mg/kg-body weight, which served as standard for comparison. Group 3 to received Omeprazole at a dose of 30-mg/kg body weight, which served as standard for comparison. Group 4 received sucralfate at a dose of 400-mg/kg body weight, which served as standard for comparison. […] Lesions were induced 1 hour after ethanol challenge animals. The stomach was ligated at the pylorus under ether anesthesia. 4 hours after pylorus ligation, the animals were sacrificed and the contents drained and centrifuges at 5000 rpm for 10 minutes. Aliquots of supernatant were used for determination of total acid by titrating with 0.01N NaOH using topfers reagent and phenolphthalein indicators.

Pylorus ligated rats = test: Pylorus ligated ulcers; details: 4 hours after pylorus ligation
Source text: as §1, §2
The animals were divided into 19 groups of 6 animals each. Animals were deprived of food for 48 hours but had free access to water. Group 1 received the vehicle Tween 80 (1%, 1 ml) which served as the control. Group 2 received ranitidine at a dose of 50-mg/kg-body weight, which served as standard for comparison. […] After one hour of administration of drug the stomach was ligated at the pylorus under ether anesthesia. 4 hours after pylorus ligation, the animals were sacrificed and the contents drained and centrifuges at 5000 rpm for 10 minutes. Aliquots of supernatant were used for determination of total acid by titrating with 0.01N NaOH using topfers reagent and phenolphthalein indicators. 4.
The animals were divided into 7 groups of 6 animals each. Animals were deprived of food for 48 hours but had free access to water. Group 1 received the vehicle Tween 80 (1%, 1 ml) which served as the control. Group 2 received ranitidine at a dose of 50-mg/kg-body weight, which served as standard for comparison. Group 3 to 7 received at a dose of 50, 25, 15, 10 and 5 mg/kg body weight respectively. After one hour of administration of drug the stomach was ligated at the pylorus under ether anesthesia. 4 hours after pylorus ligation, the animals were sacrificed and the contents drained and centrifuges at 5000 rpm for 10 minutes. Aliquots of supernatant were used for determination of total acid by titrating with 0.01N NaOH using topfers reagent and phenolphthalein indicators.

[4] = tested on: gastric ulcers induced by aspirin, ethanol, stress and pylorus ligation; test: Antigastric ulcer screening by four different models (statements in words); details: summary statement
Source text: as §1, §2

[5] = 25 mg/kg per orally daily for five days
[6] = Rattus norvegicus, po, 120 h, 25 mg/kg per orally daily for five days
[7] = Rattus norvegicus, po, 25 mg/kg per orally

SMILES	Inhibition % [1, 5]	Ulcer index Mean(SE) [1, 5]	Inhibition % ([2]; 25 mg/kg per orally)	Ulcer index Mean(SE) ([2]; 25 mg/kg per orally)	Inhibition % ([3]; 25 mg/kg)	Ulcer index Mean(SE) ([3]; 25 mg/kg)	Acidity Total mEg ([3]; 25 mg/kg)	Gastric content ([3]; 25 mg/kg)	pH ([3]; 25 mg/kg)	Acidity Total mEg (Pylorus ligated rats; 25 mg/kg)	Gastric content (Pylorus ligated rats; 25 mg/kg)	Inhibition % (Pylorus ligated rats; 25 mg/kg)	Ulcer index Mean(SE) (Pylorus ligated rats; 25 mg/kg)	pH (Pylorus ligated rats; 25 mg/kg)	inhibition at 25 mg/kg [1, 6]	inhibition at 25 mg/kg [2, 7]	inhibition at 25 mg/kg ([3]; Rattus norvegicus, 25 mg/kg)	other results
COC(=O)C1OC(Oc2ccc3c(=O)cc(-c4ccccc4)oc3c2)C(O)C(O)C1O (centres unmarked) [CGL, 3,4,5-trihydroxy-6-(4-oxo-2-phenyl-4-H-chromen-7-yoloxy) tetrahydro-pyran-2-carboxylicacid methyl ester]	70.46%	13.33	50.22%	20.00	62.50%	25.00 (±2.88)	39.00 (±1.52) mEg	4.60 (±0.20)	3.91 (±0.21)	40.00 (±1.15) m Eg	4.83 (±0.44)	60.17%	19.96 (±6.66)	3.08 (±0.22)	–	–	–	antiulcer activity (in words) [4]: very good activity
COc1c(OC2OC(CO)C(O)C(O)C2O)cc2oc(-c3ccccc3)cc(=O)c2c1O (centres unmarked) [OA-G, 5-Hydroxy-6-methoxy-2-phenyl-7-(3,4,5-trihydroxy-6-hydroxyrnethyl-tetrahydro-pyran-2-yloxy)-chromen-4-one]	32.05%	30.66	19.52%	32.33	20.00%	53.33 (±6.66)	36.66 (±0.88) mEg	4.33 (±0.11)	4.31 (±0.11)	41.66 (±1.66) m Eg	–	30.16%	35.00 (±2.88)	3.20 (±0.15)	–	–	–	–
CCCCCCCCCCCCCCCCC(=O)Oc1cc2oc(-c3ccccc3)cc(=O)c2c(O)c1OC [ORC-16, Heptadecanoic acid 5-hydroxy-6-methoxy-4-oxo-2-phenyl-4H-chromen-7-yl ester]	–	39.13	–	35.00	–	51.50 (±1.05)	43.20 (±3.86) mEg	3.7 (±0.10)	3.58 (±0.23)	42.20 (±2.20) m Eg	1.92 (±0.20)	–	43.33 (±2.10)	3.66 (±0.20)	13.3%	14%	22.8%	–
COc1c(OC(=O)c2ccc(C)cc2)cc2oc(-c3ccccc3)cc(=O)c2c1O [ORPM-1, 4-methyl-benzoic acid 5-hydroxy-6-methoxy-4-oxo-2-phenyl-4-H-chromen-7-yl ester]	16.91%	37.49	24.23%	22.85	28.75%	47.50 (±1.11)	44.24 (±0.62) mEg	3.0 (±1.50)	3.50 (±0.18)	45.24 (±0.30) m Eg	2.20 (±0.22)	16.87%	41.66 (±2.78)	3.20 (±0.25)	–	–	–	–
COc1c(O)cc2oc(-c3ccccc3)cc(=O)c2c1O [Oroxylin A, 5,7-Dihydroxy-6-methoxy-2-phenylchromen-4-one]	–	42.50	–	38.57	–	48.33 (±3.33)	48.24 (±2.84) mEg	4.0 (±0.45)	3.19 (±0.73)	55.24 (±2.40) m Eg	2.30 (±0.42)	–	50.80 (±2.00)	2.74 (±0.24)	5.81%	5.26%	27.5%	inhibition at 25 mg/kg (Pylorus ligated rats; Rattus norvegicus, 25 mg/kg): 0%
CNC(=C[N+](=O)[O-])NCCSCc1ccc(CN(C)C)o1 [Ranitidine, ranitidine, reference compound]	–	–	–	–	–	–	–	–	–	–	–	–	–	–	–	–	–	inhibition at 50 mg/kg ([1]; Rattus norvegicus, po, 120 h, 50 mg/kg per orally daily for five days): 74.2%; Ulcer index Mean(SE) ([1]; 50 mg/kg per orally daily for five days): 11.66; inhibition at 50 mg/kg ([2]; Rattus norvegicus, po, 50 mg/kg per orally): 78.8%; Ulcer index Mean(SE) ([2]; 50 mg/kg per orally): 08.62; inhibition at 50 mg/kg ([3]; Rattus norvegicus, 50 mg/kg): 61.3%; Ulcer index Mean(SE) ([3]; 50 mg/kg): 25.83 (±2.22); Acidity Total mEg ([3]; 50 mg/kg): 26.74 (±1.54) mEg; Gastric content ([3]; 50 mg/kg): 5.0 (±0.48); pH ([3]; 50 mg/kg): 4.96 (±0.13); Acidity Total mEg (Pylorus ligated rats; 50 mg/kg): 31.8 (±1.91) m Eg; Gastric content (Pylorus ligated rats; 50 mg/kg): 1.82 (±0.44); Ulcer index Mean(SE) (Pylorus ligated rats; 50 mg/kg): 10.83 (±3.21); pH (Pylorus ligated rats; 50 mg/kg): 4.75 (±0.22); inhibition at 50 mg/kg (Pylorus ligated rats; Rattus norvegicus, 50 mg/kg): 78.4%
